Laboratory results taken from publication PMC10893631, “Receptor-based pharmacophore modeling, molecular docking, synthesis and biological evaluation of novel VEGFR-2, FGFR-1, and BRAF multi-kinase inhibitors” (BMC Chemistry, 2024).
Read-outs that look alike come from different tables or passages of the source.

Legend:
Assay type in all cases: cell-based, human
[1] = test system: NCI panel of 60 tumor cell lines; experiment: NCI SRB growth inhibition, whole panel mean (single dose 10 µM / five-dose); details: Homo sapiens; for GI50: mean over NCI cancer cell lines, five-dose
Outline: (§1)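 Cytotoxicity in the NCI panel of sixty human tumour lines was measured by sulforhodamine B protein staining. Each agent was tested in DMSO-derived dilutions at five concentrations, and TGI was read where treated absorbance equalled time-zero absorbance.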

[2] = test system: IGROV1; experiment: NCI SRB growth inhibition (single dose 10 µM / five-dose); details: Homo sapiens, IGROV-1; for inhibition at 10 µM: IGROV1 (Ovarian cancer), read-out: GI%; for GI50: IGROV1, Ovarian cancer, five-dose
Outline: as §1

[3] = test system: COLO 205; experiment: as above; details: Homo sapiens; for inhibition at 10 µM: COLO 205 (Colon cancer), read-out: GI%; for GI50: COLO 205, Colon cancer, five-dose
Outline: as §1

[4] = test system: HCT-15; experiment: as above; details: Homo sapiens; for inhibition at 10 µM: HCT-15 (Colon cancer), read-out: GI%; for GI50: HCT-15, Colon cancer, five-dose
Outline: as §1

[5] = test system: SF-268; experiment: as above; details: Homo sapiens; for inhibition at 10 µM: SF-268 (CNS cancer), read-out: GI%; for GI50: SF-268, CNS cancer, five-dose
Outline: as §1

[6] = test system: UACC-62; experiment: as above; details: Homo sapiens; for inhibition at 10 µM: UACC-62 (Melanoma), read-out: GI%; for GI50: UACC-62, Melanoma, five-dose
Outline: as §1

[7] = test system: T-47D; experiment: as above; details: Homo sapiens, T47D; for inhibition at 10 µM: T-47D (Breast cancer), read-out: GI%; for GI50: T-47D, Breast cancer, five-dose
Outline: as §1

[8] = test system: OVCAR-3; experiment: as above; details: Homo sapiens; for inhibition at 10 µM: OVCAR-3 (Ovarian cancer), read-out: GI%; for GI50: OVCAR-3, Ovarian cancer, five-dose
Outline: as §1

[9] = test system: NCI-H23; experiment: as above; details: Homo sapiens; for inhibition at 10 µM: NCI-H23 (Non-small cell lung cancer), read-out: GI%; for GI50: NCI-H23, Non-small cell lung cancer, five-dose
Outline: as §1

[10] = test system: UO-31; experiment: as above; details: Homo sapiens; for inhibition at 10 µM: UO-31 (Renal cancer), read-out: GI%; for GI50: UO-31, Renal cancer, five-dose
Outline: as §1

[11] = test system: HOP-62; experiment: as above; details: Homo sapiens; for inhibition at 10 µM: HOP-62 (Non-small cell lung cancer), read-out: GI%; for GI50: HOP-62, Non-small cell lung cancer, five-dose
Outline: as §1

[12] = test system: MDA-MB-435; experiment: as above; details: Homo sapiens; for inhibition at 10 µM: MDA-MB-435 (Melanoma), read-out: GI%; for GI50: MDA-MB-435, Melanoma, five-dose
Outline: as §1

[13] = test system: SK-OV-3; experiment: as above; details: Homo sapiens; for inhibition at 10 µM: SK-OV-3 (Ovarian cancer), read-out: GI%; for GI50: SK-OV-3, Ovarian cancer, five-dose
Outline: as §1

[14] = test system: NCI-H322M; experiment: as above; details: Homo sapiens; for inhibition at 10 µM: NCI-H322M (Non-small cell lung cancer), read-out: GI%; for GI50: NCI-H322M, Non-small cell lung cancer, five-dose
Outline: as §1

[15] = test system: NCI-H522; experiment: as above; details: Homo sapiens; for inhibition at 10 µM: NCI-H522 (Non-small cell lung cancer), read-out: GI%; for GI50: NCI-H522, Non-small cell lung cancer, five-dose
Outline: as §1

[16] = test system: HL-60(TB); experiment: as above; details: Homo sapiens; for inhibition at 10 µM: HL-60(TB) (Leukemia), read-out: GI%; for GI50: HL-60(TB), Leukemia, five-dose
Outline: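 SRB protein stain of fixed cells; compounds tested at one dose (10 µM) or five serial dilutions (10-fold or ½ log), diluted from DMSO stock. Cells plated 24 h before dosing, with a time-zero plate fixed in TCA. Percent growth derived from Tz, control and test absorbances; TGI taken where Ti = Tz.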

[17] = test system: OVCAR-8; experiment: as above; details: Homo sapiens; for inhibition at 10 µM: OVCAR-8 (Ovarian cancer), read-out: GI%; for GI50: OVCAR-8, Ovarian cancer, five-dose
Outline: as §1

[18] = test system: PC-3; experiment: as above; details: Homo sapiens; for inhibition at 10 µM: PC-3 (Prostate cancer), read-out: GI%
Outline: as §1

[19] = test system: NCI-H460; experiment: as above; details: Homo sapiens; for inhibition at 10 µM: NCI-H460 (Non-small cell lung cancer), read-out: GI%; for GI50: NCI-H460, Non-small cell lung cancer, five-dose
Outline: as §1

[20] = test system: SN12C; experiment: as above; details: Homo sapiens; for inhibition at 10 µM: SN12C (Renal cancer), read-out: GI%; for GI50: SN12C, Renal cancer, five-dose
Outline: as §1

[21] = test system: KM12; experiment: as above; details: Homo sapiens; for inhibition at 10 µM: KM12 (Colon cancer), read-out: GI%; for GI50: KM12, Colon cancer, five-dose
Outline: as §1

[22] = test system: U251; experiment: as above; details: Homo sapiens, U-251; for inhibition at 10 µM: U251 (CNS cancer), read-out: GI%; for GI50: U251, CNS cancer, five-dose
Outline: as §1

[23] = test system: OVCAR-4; experiment: as above; details: Homo sapiens; for inhibition at 10 µM: OVCAR-4 (Ovarian cancer), read-out: GI%; for GI50: OVCAR-4, Ovarian cancer, five-dose
Outline: as §1

[24] = mean over NCI 60 cell lines, > 100% = lethal effect, read-out: mean growth inhibition % (GI%)
[25] = mean over NCI panel of 60 tumor cell lines, read-out: Mean growth inhibition %

`COc1ccc(-c2nc3cc(C(=O)NN=Cc4cc(OC)c(OC)c(OC)c4)ccc3[nH]2)cc1` [8n, 2-(4-Methoxyphenyl)-N'-(3,4,5-trimethoxybenzylidene)-1H-benzo[d]imidazole-5-carbohydrazide] was tested, and the inhibition at 10 µM [1, 24] was 13.6%, the inhibition at 10 µM [1, 25] was 13.6% and the inhibition at 10 µM [2] was under 5%. It also gave an inhibition at 10 µM [3] of 33.7%, an inhibition at 10 µM [4] of under 5% and an inhibition at 10 µM [5] of 21%. The inhibition at 10 µM [6] was 68.5%, the inhibition at 10 µM [7] was 38.1% and the inhibition at 10 µM [8] was under 5%. For the same compound, the inhibition at 10 µM [9] was 10.8%, the inhibition at 10 µM [10] was 21.8% and the inhibition at 10 µM [11] was 14.6%. For the same compound, the inhibition at 10 µM [12] was 25%, the inhibition at 10 µM [13] was 20.2% and the inhibition at 10 µM [14] was under 5%. For the same compound, the inhibition at 10 µM [15] was 96.2%, the inhibition at 10 µM [16] was under 5% and the inhibition at 10 µM [17] was 15%. The inhibition at 10 µM [18] was 12.9%, the inhibition at 10 µM [19] was under 5% and the inhibition at 10 µM [20] was 9.66%. For the same compound, the inhibition at 10 µM [21] was 13.8%, the inhibition at 10 µM [22] was 15.3% and the inhibition at 10 µM [23] was under 5%.

`O=C(NN=Cc1ccccc1O)c1ccc2[nH]c(-c3ccc(Cl)cc3)nc2c1` [8o, 2-(4-Chlorophenyl)-N'-(2-hydroxybenzylidene)-1H-benzo[d]imidazole-5-carbohydrazide] was tested, and the inhibition at 10 µM [1, 24] was over 100%, the GI50 [1] was 5.44 µM and the inhibition at 10 µM [1, 25] was over 100%. The inhibition at 10 µM [2] was 84.3%, the GI50 [2] was 0.95 µM and the GI50 [3] was 0.89 µM. For the same compound, the inhibition at 10 µM [4] was over 100%, the GI50 [4] was 0.2 µM and the inhibition at 10 µM [5] was over 100%. For the same compound, the GI50 [5] was 0.84 µM, the inhibition at 10 µM [6] was 95.3% and the GI50 [6] was 1.69 µM. It also gave a GI50 [7] of 1.48 µM, an inhibition at 10 µM [8] of over 100% and a GI50 [8] of 0.19 µM. It also gave an inhibition at 10 µM [9] of over 100%, a GI50 [9] of 0.31 µM and an inhibition at 10 µM [10] of over 100%. For the same compound, the GI50 [10] was 0.31 µM, the GI50 [11] was 0.84 µM and the inhibition at 10 µM [12] was over 100%. For the same compound, the GI50 [12] was 0.53 µM, the GI50 [13] was 4.53 µM and the inhibition at 10 µM [14] was 70.2%. It also gave a GI50 [14] of 1.38 µM, an inhibition at 10 µM [15] of over 100% and a GI50 [15] of 0.26 µM. It also gave an inhibition at 10 µM [16] of 47.1%, a GI50 [16] of 0.31 µM and an inhibition at 10 µM [17] of over 100%. It also gave a GI50 [17] of 0.98 µM, an inhibition at 10 µM [18] of 78.5% and a GI50 ([18]; PC-3, Prostate cancer, five-dose) of over 38.8 µM. It also gave an inhibition at 10 µM [19] of over 100%, a GI50 [19] of 0.25 µM and an inhibition at 10 µM [20] of 59.4%. It also gave a GI50 [20] of 3.41 µM, an inhibition at 10 µM [21] of 85.4% and a GI50 [21] of 1.24 µM. For the same compound, the inhibition at 10 µM [22] was over 100%, the GI50 [22] was 0.83 µM and the inhibition at 10 µM [23] was over 100%. The GI50 [23] was 1.25 µM.

For `COc1cccc(C=NNC(=O)c2ccc3[nH]c(-c4ccc(Cl)cc4)nc3c2)c1` [8q, 2-(4-Chlorophenyl)-N'-(3-methoxybenzylidene)-1H-benzo[d]imidazole-5-carbohydrazide], the inhibition at 10 µM [1, 24] was over 100%, the GI50 [1] was 5.4 µM and the inhibition at 10 µM [1, 25] was over 100%. It also gave an inhibition at 10 µM [2] of over 100%, a GI50 [2] of 3.01 µM and an inhibition at 10 µM [3] of over 100%. It also gave a GI50 [3] of 4.02 µM, an inhibition at 10 µM [4] of 63% and a GI50 [4] of 5.52 µM. The inhibition at 10 µM [5] was over 100%, the GI50 [5] was 2.18 µM and the inhibition at 10 µM [6] was over 100%. It also gave a GI50 [6] of 4.92 µM, an inhibition at 10 µM [7] of over 100% and a GI50 [7] of 1.95 µM. For the same compound, the inhibition at 10 µM [8] was over 100%, the GI50 [8] was 3.24 µM and the inhibition at 10 µM [9] was over 100%. For the same compound, the GI50 [9] was 2.2 µM, the inhibition at 10 µM [10] was 81.7% and the GI50 [10] was 3.46 µM. It also gave an inhibition at 10 µM [11] of over 100%, a GI50 [11] of 1.92 µM and an inhibition at 10 µM [12] of 98.9%. It also gave a GI50 [12] of 3.9 µM, an inhibition at 10 µM [13] of over 100% and a GI50 [13] of 2.02 µM. For the same compound, the inhibition at 10 µM [14] was over 100%, the GI50 [14] was 3.57 µM and the inhibition at 10 µM [15] was over 100%. The GI50 [15] was 2.26 µM, the inhibition at 10 µM [16] was 50.7% and the GI50 [16] was 19.5 µM. The inhibition at 10 µM [17] was over 100%, the GI50 [17] was 2.69 µM and the inhibition at 10 µM [18] was over 100%. For the same compound, the inhibition at 10 µM [19] was over 100%, the GI50 [19] was 3.34 µM and the GI50 [20] was 2.22 µM. The inhibition at 10 µM [21] was over 100%, the GI50 [21] was 4.42 µM and the inhibition at 10 µM [22] was over 100%. The GI50 [22] was 2.03 µM, the inhibition at 10 µM [23] was over 100% and the GI50 [23] was 3.07 µM.
